Data reported in patent publication US20100087493A1, “METHOD FOR IMPROVING THE PHARMACOKINETICS OF DRUGS METABOLIZED BY UGT2B10” (priority 2007, published 2010).
Where two headings read alike, the source gives them in different places.

Legend:
UGT1A4 = UGT1A4 (Homo sapiens, UniProt P22310); assay: biochemical
Procedure: (§1) For the purpose of identifying a compound which acts as UGT2B10 modulator, recombinant cells that express UGT2B10 are prepared as described above. The cells expressing UGT2B10 are suspended in water and homogenized using known procedures. The incubation mixture is prepared by mixing recombinant UGT2B10 homogenate and uridine-5-diphosphoglucuronic acid (UDP-GA) as a glucuronic acid source in a suitable buffer such as phosphate buffer pH 7.4. […] The reaction is terminated as described above. Following centrifugation, the supernatants are analyzed and quantified for the presence of glucuronidated derivative of the substrate as described above. The UGT2B10 enzyme activity towards the substrate, in the absence and presence of the modulator, is calculated as the amount of glucuronide formed (pmol) divided by incubation time (min) and protein amount (mg/incubation). The effect of the modulator, inhibition or activation, on the enzyme activity towards the substrate is calculated as % enzyme activity at each modulator concentration compared to the enzyme activity measured in the absence of the modulator. IC50, inhibitor concentration that inhibits the activity by 50%, is used as the measure of the inhibitory effect, and the activation effect is calculated as % increase in enzyme activity. […]
(§2) The samples were analyzed by high-performance liquid chromatography-mass spectrometry (HPLC-MS).

[1] = biological target: T1, Recombinant human UGT2B10 (Homo sapiens, UniProt P36537); assay: biochemical
T1 sequence (P36537 24-528): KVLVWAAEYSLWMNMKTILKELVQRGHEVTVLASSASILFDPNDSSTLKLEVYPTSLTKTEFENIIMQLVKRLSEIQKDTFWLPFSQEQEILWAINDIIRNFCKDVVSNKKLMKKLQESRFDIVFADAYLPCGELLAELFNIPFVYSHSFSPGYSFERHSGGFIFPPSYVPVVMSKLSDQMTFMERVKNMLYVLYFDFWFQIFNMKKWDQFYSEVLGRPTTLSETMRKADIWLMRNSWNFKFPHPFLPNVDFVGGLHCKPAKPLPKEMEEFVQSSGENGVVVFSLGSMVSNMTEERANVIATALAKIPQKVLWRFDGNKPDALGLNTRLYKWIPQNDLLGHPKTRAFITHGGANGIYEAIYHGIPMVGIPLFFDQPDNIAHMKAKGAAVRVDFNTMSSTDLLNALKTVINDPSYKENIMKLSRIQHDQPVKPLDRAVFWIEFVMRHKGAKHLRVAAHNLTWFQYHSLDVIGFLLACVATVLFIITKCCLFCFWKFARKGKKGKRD
Procedure: as §1, §2

[2] = biological target: T1, Recombinant human UGT2B10
Procedure: For the purpose of identifying compounds which are directly metabolized by UGT2B10, recombinant cells that express UGT2B10 are prepared according to known methods. For example, recombinant UGT2B10 can be expressed in baculovirus-infected insect cells as described e.g. in Kurkela, M. et al., Journal of Biological Chemistry, 278(6), 3536-3544, 2003. The cells expressing UGT2B10 are suspended in water and homogenized using known procedures. Incubation mixture is prepared by mixing recombinant UGT2B10 homogenate and uridine-5-diphospho-glucuronic acid (UDP-GA) as a glucuronic acid source in a suitable buffer such as phosphate buffer pH 7.4. […] The reaction is terminated by protein precipitation, e.g. by addition of trifluoroacetic acid, or acetonitrile if the formed N-glucuronide is expected to be acid-labile, and cooling. Following centrifugation, the supernatants are analysed for the presence of glucuronidated derivative of the test compound, wherein any suitable analyzing method can be used. High pressure liquid chromatography followed by mass spectrometry is the preferred method. The glucuronides are quantified using authentic glucuronide standards or another suitable methods such as substrate depletion. The enzyme activity of UGT2B10 towards the tested compound is calculated as the amount of glucuronide formed (pmol) divided by incubation time (min) and protein amount (mg/incubation). Example 1 of the present application describes a procedure suitable for identifying compounds that are glucuronidated by UGT2B10.
Recombinant human UGT2B10 were produced in baculovirus-infected insect cells and used as cell homogenate after suspending the cells with water. The glucuronidation rates were determined by incubating the substrates, nicotine and cotinine, with the enzyme UGT2B10 using uridine-5′-diphosphoglucuronic acid (UDP-GA) as a cofactor. The reaction mixtures were incubated at +37° C. for 1-2 hours. The samples were analyzed by high-performance liquid chromatography-mass spectrometry (HPLC-MS). The formed glucuronides were quantified using authentic glucuronide standards. The enzyme activity of UGT2B10 towards the tested compound was calculated as pmol glucuronide formed divided by incubation time (min) and protein amount (mg/incubation).

UGT2B10 versus UGT1A4 = biological target: T2, UGT2B10 versus UGT1A4 (Homo sapiens, UniProt P36537); assay: Km of nicotine glucuronidation, UGT2B10; format: in vitro ADME; settings: read-out: Km for UGT2B10 fold less compared to UGT1A4 (selectivity)
T2 construct: made in house; host or cells: baculovirus-infected insect cells (used as cell homogenate)
T2 sequence (P36537 24-528): T1 sequence (P36537 24-528)
From the text: (§3) The reaction is terminated as described above. […] 1.1 (SPSS Inc., Chicago, Ill.).
(§4) 1.1 (SPSS Inc., Chicago, Ill.) software.

in vitro = settings: human, human liver microsomes
Procedure: The reaction is terminated as described above.
The reaction mixtures were incubated at +37° C. for 1-2 hours. The samples were analyzed by high-performance liquid chromatography-mass spectrometry (HPLC-MS).

[3] = substrate: CN1CCCC1c1cccnc1; assay: Km of nicotine glucuronidation, UGT2B10; format: in vitro ADME, human; settings: other: nicotine glucuronidation, 0.002-2 mM, cell homogenate; pH 7.4; 37.0 °C
From the text: as §3, §4

[4] = substrate: CN1CCCC1c1cccnc1; assay: Km of nicotine glucuronidation, UGT1A4; format: in vitro ADME, human; settings: other: nicotine glucuronidation, 0.002-2 mM, microsomal membranes; pH 7.4; 37.0 °C
From the text: as §3, §4

Cc1cccc(C(C)c2cnc[nH]2)c1C (stereo in doubt) [Levomedetomidine, (S)-4-[1-(2,3-dimethylphenyl)-ethyl]-3H-imidazole]
IC50 (UGT1A4): > 1000 µM
IC50 [1]: 13 µM

CN1C(=O)CC[C@H]1c1cccnc1 [Cotinine, cotinine]
substrate for UGT2B10 ([2]; human): substrates for UGT2B10
UGT2B10 activity ([2]; human, 2 mM): 12.7 pmol/min/mg prot.

CN1CCCC1c1cccnc1 (stereo not shown) [Nicotine, nicotine]
selectivity ratio (UGT2B10 versus UGT1A4): 8
Km (in vitro): 330 µM
UGT2B10 activity ([2]; in vitro, 2 mM substrate concentration, cell homogenate): 2.9 pmol/min/mg prot.
substrate for UGT2B10 ([2]; in vitro, cell homogenate): substrates for UGT2B10

B1: Recombinant human UGT2B10 (Homo sapiens) (protein)
chain: T1 sequence (P36537 24-528)
notes: made in house; host or cells: baculovirus-infected insect cells (used as cell homogenate)
Km [3]: 290 µM

B2: recombinant human UGT1A4 (Homo sapiens) (protein)
chain: GKVLVVPTDGSPWLSMREALRELHARGHQAVVLTPEVNMHIKEEKFFTLTAYAVPWTQKEFDRVTLGYTQGFFETEHLLKRYSRSMAIMNNVSLALHRCCVELLHNEALIRHLNATSFDVVLTDPVNLCGAVLAKYLSIPAVFFWRYIPCDLDFKGTQCPNPSSYIPKLLTTNSDHMTFLQRVKNMLYPLALSYICHTFSAPYASLASELFQREVSVVDLVSYASVWLFRGDFVMDYPRPIMPNMVFIGGINCANGKPLSQEFEAYINASGEHGIVVFSLGSMVSEIPEKKAMAIADALGKIPQTVLWRYTGTRPSNLANNTILVKWLPQNDLLGHPMTRAFITHAGSHGVYESICNGVPMVMMPLFGDQMDNAKRMETKGAGVTLNVLEMTSEDLENALKAVINDKSYKENIMRLSSLHKDRPVEPLDLAVFWVEFVMRHKGAPHLRPAAHDLTWYQYHSLDVIGFLLAVVLTVAFITFKCCAYGYRKCLGKKGRVKKAHKSKTH
notes: made in house; host or cells: baculovirus-infected insect cells (microsomal membranes isolated)
Km [4]: 2400 µM
